“And” between values parts separate entries of the source, which are not always exact repeats. Identical values can stand only once.
Columns and labels:
HCT 116 cells [1] = experiment: Cytotoxicity assay, HCT 116 colon cancer cells; format: cell-based, human; details: for inhibition at 10 µM / inhibition at 100 µM: read-out: percentage inhibition of HCT 116 cells
Description: (§1) Evaluation of the cytotoxic properties of the compounds presented in Table 1, Table 2, Table 3 and Table 4 was undertaken using the procedure outlined in [7]. In brief, the HCT 116 cells were obtained from the ATCC and cultured in McCoy’s 5A medium. The CRL 1790 cells were obtained from the ATCC and cultured in Minimum Essential Medium. The MCF-7 and MDA-MBA-231 cells were obtained from the Saskatchewan Cancer Agency and cultured in DMEM. In each assay the culture medium was supplemented with 10% fetal bovine serum and 1% penicillin–streptomycin antibiotics. The time of the bioassays was 48 h, unless indicated otherwise. All determinations were carried out in triplicate on three different occasions.

MCF-7 cells = experiment: Cytotoxicity assay, MCF-7 breast cancer cells; format: cell-based, human; details: Homo sapiens, MCF7, 48 h, read-out: percentage inhibition of MCF-7 cells
Description: as §1

MDA-MB-231 cells = experiment: Cytotoxicity assay, MDA-MB-231 breast cancer cells; format: cell-based, human; details: Homo sapiens, MDA-MB-231, 48 h, read-out: percentage inhibition of MDA-MB-231 cells
Description: as §1

Ramos cells = experiment: Cytotoxicity (CC50), Ramos cells; format: cell-based, human; details: for CC50: Homo sapiens, Ramos, 24 h incubation; for SI Ramos: average CC50 of non-malignant cells / CC50 Ramos
Description: (§2) In brief, the compounds were incubated for 24 h with the neoplasms, using DMEM and RPMI media. Three independent experiments were carried out.

NALM-60 cells = experiment: Cytotoxicity (CC50), NALM-60 cells; format: cell-based, human; details: for CC50: Homo sapiens, 24 h incubation; for SI NALM-60: average CC50 of non-malignant cells / CC50 NALM-60
Description: as §2

CEM cells = experiment: Cytotoxicity (CC50), CEM cells; format: cell-based, human; details: for CC50: Homo sapiens, CCRF-CEM, 24 h incubation; for SI CEM: average CC50 of non-malignant cells / CC50 CEM
Description: as §2

HL-60 cells = experiment: Cytotoxicity (CC50), HL-60 cells; format: cell-based, human; details: for CC50: Homo sapiens, HL-60, 24 h incubation; for SI HL-60: average CC50 of non-malignant cells / CC50 HL-60
Description: as §2

JURKAT cells = experiment: Cytotoxicity (CC50), Jurkat cells; format: cell-based, human; details: for CC50: Homo sapiens, Jurkat, 24 h incubation; for SI JURKAT: average CC50 of non-malignant cells / CC50 JURKAT
Description: as §2

RAJI cells = experiment: Cytotoxicity (CC50), Raji cells; format: cell-based, human; details: for CC50: Homo sapiens, Raji, 24 h incubation; for SI RAJI: average CC50 of non-malignant cells / CC50 RAJI
Description: as §2

[2] = Cytotoxicity (CC50), non-malignant Hs27 foreskin cells; format: cell-based; details: human, 24 h incubation
Description: as §2

[3] = Cytotoxicity (CC50), non-malignant MCF-10A breast cells; format: cell-based; details: human, MCF-10A cells (non-malignant breast cells); 24 h incubation; read-out: Non-Malignant Cells CC50, MCF10A
Description: as §2

[4] = system: Ramos, NALM-60, CEM, HL-60, JURKAT, RAJI cells; experiment: Cytotoxicity (CC50), average over six leukemia/lymphoma cell lines; format: cell-based, human; details: for CC50: Homo sapiens, average over six neoplastic cell lines
Description: as §2

[5] = Cytotoxicity (CC50), average over non-malignant cells; format: cell-based; details: human, Hs27 and MCF10A cells (non-malignant), average of both
Description: as §2

CRL 1790 cells = experiment: Cytotoxicity assay, non-malignant CRL 1790 colon cells; format: cell-based; details: Homo sapiens, 48 h, Table 2, read-out: Non-Malignant CRL 1790 Cells IC50
Description: as §1

HCT 116 cells [6] = experiment: Chemosensitization of HCT 116 cells: 1m for 24 h, then 2a or 5-FU for a further 24 h; format: cell-based, human; details: for Reduction in Live Cells % 1m (48 h): DMSO figure minus compound figure
Description: as §1
The next phase of the investigation was to determine whether a representative compound in series 1 chemosensitizes HCT 116 cells to a 3,5-bis(benzylidene)-4-piperidone 2a. […] The colon cancer cells were incubated for 24 h with 1m, and then 2a was added and the incubation was continued for a further 24 h. Different concentrations of both 1m and 2a were employed, and the results are presented as entries 1–12 in Table 3. In addition, the effects of each of 1m, 2a, and 5-FU on HCT 116 cells (which are necessary for the evaluation of whether chemosensitivity occurs) were recorded, and are presented as entries 13–20 in Table 3.
The concentration of 1m in combination 4 is 5 µM, which after 48 h causes a percentage reduction of live cells to 86% (DMSO figure after 48 h, line 20) minus 75% (48 h, line 13), or 11%.
The concentration of 2a in combination 4 is 0.2 µM. This combination leads to a reduction of the percentage of live cells to 91% (DMSO figure after 24 h, line 20) minus 69%, or 22%.
The percentage reduction in live cells caused by a combination of 1m (5 µM) and 2a (0.2 µM), in the absence of chemosensitization, is 11% plus 22%, or 33%.
However, the percentage reduction in cells as indicated on line 4 is 86% (DMSO figure after 48 h) minus 12% (line 4, 48 h figure), or 74%.

HCT 116 cells [7] = experiment: Mitochondrial membrane potential of HCT 116 cells (TMRE dye); format: cell-based, human; details: IC50 concentration towards HCT 116, 48 h, Figure 4
Description: The method of Crowley et al. was employed in order to ascertain the effects of 1m, 7a, e, g, and 5-FU on the mitochondrial membrane potential of HCT 116 cells.
The decision was made to experiment with another method for determining the effect of compounds on the MMP. In this assay, the dye used was tetramethylrhodamine ethyl ester (TMRE), which can be found in the mitochondria of healthy cells. However, in apoptotic cells, the dye is released into the cytosol, leading to a decrease in the fluorescence signal.

HCT 116 cells [8] = experiment: ROS levels in HCT 116 cells (DCF-DA dye); format: cell-based, human; details: IC50 concentration towards HCT 116; DCF-DA fluorescence; Figure 5
Description: In this assay, the dye 2,7-dichlorofluorescein diacetate (DCF-DA) was used, and the effects of 1m, 7a, e, g, and 5-FU on the ROS levels in HCT 116 cells were determined by the method of [11].
The evaluation of 1m, […], e, and g for their capacity to increase the concentration of ROS in HCT 116 cells used 2′,7′-dichlorofluorescein diacetate. This dye is deacetylated in cells, and is converted into a non-fluorescent compound that reacts with ROS to form 2′,7′-dichlorofluorescein, which is fluorescent.

| melting point [°C] | SMILES | inhibition at 10 µM (HCT 116 cells [1]; Homo sapiens, HCT-116, 48 h) [%] | inhibition at 100 µM (HCT 116 cells [1]; Homo sapiens, HCT-116, 48 h) [%] | inhibition at 10 µM (MCF-7 cells) [%] | inhibition at 100 µM (MCF-7 cells) [%] | inhibition at 10 µM (MDA-MB-231 cells) [%] | inhibition at 100 µM (MDA-MB-231 cells) [%] | CC50 (Ramos cells) [µM] | SI Ramos (Ramos cells) | CC50 (NALM-60 cells) [µM] | SI NALM-60 (NALM-60 cells) | CC50 (CEM cells) [µM] | SI CEM (CEM cells) | CC50 (HL-60 cells) [µM] | SI HL-60 (HL-60 cells) | CC50 (JURKAT cells) [µM] | SI JURKAT (JURKAT cells) | CC50 (RAJI cells) [µM] | SI RAJI (RAJI cells) | CC50 at 24 h [2] [µM] | other results |
| --- | --- | --- | --- | --- | --- | --- | --- | --- | --- | --- | --- | --- | --- | --- | --- | --- | --- | --- | --- | --- | --- |
| 233 to 235 | C=CC(=O)NNC(=O)c1ccc(Cl)cc1 [1d, N^2-Acryloyl-4-chlorobenzohydrazide] | -5.05 ± 2.36 | 82.3 ± 0.8 | 3.59 ± 2.08 | 55.9 ± 2.82 | -12.3 ± 4.05 | 49.1 ± 2.04 | 0.15 ± 0.02 | 57.9 | 2.86 ± 0.55 | 3.04 | 0.86 ± 0.07 | 10.1 | 2.9 ± 0.76 | 3.00 | 1.07 ± 0.09 | 8.12 | 2.71 ± 0.09 | 3.24 | 10.5 ± 0.05 | CC50 at 24 h [3]: 6.87 ± 0.48 µM; Avg SI, neoplastic cells [4]: 14.2; CC50 [4]: 1.76 µM; CC50 at 24 h [5]: 8.69 µM |
| 207 to 210 | C=CC(=O)NNC(=O)c1cc(Cl)ccc1Cl [1h, N^2-Acryloyl-2,5-dichlorobenzohydrazide] | 7.12 ± 1.51 | 87.7 ± 1.62 | 14.7 ± 3.68 | 54.2 ± 3.42 | -5.95 ± 4.21 | 122 ± 2.9 | 0.29 ± 0.05 | 47.2 | 3.34 ± 0.43 | 4.10 | 3.37 ± 0.18 | 4.07 | 5.62 ± 0.29 | 2.44 | 2.5 ± 0.24 | 5.48 | 5.5 ± 1.1 | 2.49 | 14.4 ± 0.24 | CC50 at 24 h [3]: 12.9 ± 0.95 µM; Avg SI, neoplastic cells [4]: 11.0; CC50 [4]: 3.44 µM; CC50 at 24 h [5]: 13.7 µM |
| 163 to 165 | C=CC(=O)NNC(=O)c1ccc(OC)c(OC)c1 [1m, N^2-Acryloyl-3,4-dimethoxylbenzohydrazide] | 46.9 ± 2.55 | 97.9 ± 1.92 | -16.1 ± 3.51 | > 100 | -15.9 ± 1.96 | 50.5 ± 1.42 | – | – | – | – | – | – | – | – | – | – | – | – | – | IC50 (HCT 116 cells [1]; Homo sapiens, HCT-116, Table 2, 48 h, read-out: Neoplastic Cells IC50, HCT 116): 15.3 ± 0.42 µM; SI (selectivity index) (HCT 116 cells [1]; IC50 CRL 1790 / IC50 HCT 116, Table 2): >6.54; IC50 (CRL 1790 cells): > 100 µM; Reduction in Live Cells % 1m (48 h) (HCT 116 cells [6]; 1m 5 µM alone, 48 h): 11%; Reduction in Live Cells % 1m (48 h) (HCT 116 cells [6]; 1m 10 µM alone, 48 h): 29%; Reduction in Live Cells % 1m (48 h) (HCT 116 cells [6]; 1m 15 µM alone, 48 h): 54%; chemosensitization of HCT 116 cells (HCT 116 cells [6]; 1m 24 h before the cytotoxin, certain concentrations): sensitizes HCT 116 cells to the potent cytotoxin 2a, and also to the established anticancer drug 5-FU; Live Cells % (HCT 116 cells [6]; entry 13: 1m 5 µM alone, 24 h): 88 ± 2.82%; Live Cells % (HCT 116 cells [6]; entry 13: 1m 5 µM alone, 48 h): 75% and 75 ± 4.89%; Live Cells % (HCT 116 cells [6]; entry 14: 1m 10 µM alone, 24 h): 67 ± 1.67%; Live Cells % (HCT 116 cells [6]; entry 14: 1m 10 µM alone, 48 h): 57 ± 1.76%; Live Cells % (HCT 116 cells [6]; entry 15: 1m 15 µM alone, 24 h): 61 ± 3.49%; Live Cells % (HCT 116 cells [6]; entry 15: 1m 15 µM alone, 48 h): 32 ± 0.94%; effect on mitochondrial membrane potential of HCT 116 cells (HCT 116 cells [7]): only 7e reduces the electrochemical potential of the mitochondria; effect on ROS levels in HCT 116 cells (HCT 116 cells [8]): increase the fluorescence intensity |

Source: paper PMC8226474, “Design, Syntheses, and Bioevaluations of Some Novel N^2-Acryloylbenzohydrazides as Chemostimulants and Cytotoxic Agents” (Medicines, 2021)
